Results as given in patent US9701691B2, “Thienopyrimidine compounds” (Hoffmann-La Roche Inc., priority 2012, dated 2017).
Where a name gives a salt, the structure may show the parent alone.

Experiments:
[1] = system: B-cell lymphocytes (CD20+) in human whole blood, CD69 up-regulation; assay: B Cell CD69 Up-Regulation Assay in Human Whole Blood; assay type: cell-based; conditions: goat anti-human IgM 50 μg/ml stimulation for 20 hrs, CD69hi CD20+ B cells, read-out: HWB, IC50
Method: B Cell CD69 Up-Regulation Assay in Human Whole Blood
Human Blood was collected from healthy volunteers into Vacutainers (BD Biosciences, San Jose, Calif.) containing sodium heparin. Test compound was suspended in DMSO and nine half-log serial dilutions were made. The concentration of DMSO in the assay was 0.5%. […] whole blood was pre-incubated with compound for 30 min and then stimulated with goat anti-human IgM (50 μg/ml, Southern Biotech) for 20 hrs. At the end of the 20 hour incubation, samples were incubated with fluorochrome-conjugated antibodies, PE mouse anti-human CD20 and APC Mouse anti-human CD69 (BD Biosciences), for 30 minutes. Samples were then lysed with Lyse solution (BD) and washed with PBS containing 2% fetal bovine serum (FBS). Fluorescent signals were acquired on flow cytometer LSR II (BD) and data were analyzed by Flow Jo. The percentage of activated (CD69hi) B-cell lymphocytes (CD20+) were determined using un-stimulated (negative control) and stimulated (positive control) wells as reference guidelines. The percentage inhibition was calculated and an IC50 curve was constructed using Xfit in Microsoft Excel with sigmoidal curve fitting.

[2] = target: Recombinant human full length SYK protein (Homo sapiens (Human), UniProt P43405); assay: SYK kinase assay (33P ATP incorporation into biotinylated peptide); assay type: biochemical; conditions: ATP 20 μM
Method: This assay is performed in 96-well format for IC50 determination with 8 samples which represented 10 half log dilutions and a 40 μL reaction volume. […] Phosphorylated products were detected upon termination of reactions with EDTA and the addition of Streptavidin coated beads.
Assay plates: 96-well MultiScreen 0.65 um filter plates (Millipore Cat. No.: MADVNOB10)
final concentration: 50 mM HEPES pH7.5
BSA: Bovine Serum Albumin Fraction V, fatty acid free (Roche Diagnostics GmbH, Cat. No. 9100221) diluted to a final concentration of 0.1%
Assay Dilution Buffer (ADB): 50 mM HEPES, 0.1 mM EGTA, 0.1 mM Na Vanadate, 0.1 mM β-glycerophosphate, 10 mM MgCl2, 1 mM DTT, 0.1% BSA, pH 7.5
Bead wash buffer: 10 g/L PBS (Phosphate buffered saline) with 2M NaCl+1% phosphoric acid.

| SMILES | IC50 [1] [µM] | IC50 [2] [µM] |
| --- | --- | --- |
| CCc1cccc(NC(=O)c2csc3cnc(N[C@@H]4CCOC[C@@H]4N)nc23)n1 [Compound 1, 2-((3R,4R)-3-Amino-tetrahydro-pyran-4-ylamino)-thieno[3,2-d]pyrimidine-7-carboxylic acid (6-ethyl-pyridin-2-yl)-amide] | 5.38 |  |
| Cc1cc(NC(=O)c2csc3cnc(N[C@@H]4CCCC[C@@H]4N)nc23)cc2cccnc12 [Compound 2, 2-((1R,2S)-2-Amino-cyclohexylamino)-thieno[3,2-d]pyrimidine-7-carboxylic acid (8-methyl-quinolin-6-yl)-amide] | 0.19 | < 0.001 |
| CCc1cc(NC(=O)c2csc3cnc(N[C@@H]4CCCC[C@@H]4N)nc23)cc2cccnc12 [Compound 3, 2-((1R,2S)-2-Amino-cyclohexylamino)-thieno[3,2-d]pyrimidine-7-carboxylic acid (8-ethyl-quinolin-6-yl)-amide] | 0.76 |  |
| Cc1nc(NC(=O)c2csc3cnc(N[C@@H]4CCCC[C@@H]4N)nc23)ccc1C#N [Compound 4, 2-((1R,2S)-2-Amino-cyclohexylamino)-thieno[3,2-d]pyrimidine-7-carboxylic acid (5-cyano-6-methyl-pyridin-2-yl)-amide] | 50 |  |
| N[C@H]1COCC[C@H]1Nc1ncc2scc(C(=O)Nc3cccc(-n4nccn4)n3)c2n1 [Compound 5, 2-((3R,4R)-3-Amino-tetrahydro-pyran-4-ylamino)-thieno[3,2-d]pyrimidine-7-carboxylic acid (6-[1,2,3]triazol-2-yl-pyridin-2-yl)-amide] | 3.79 |  |
| N[C@H]1COCC[C@H]1Nc1ncc2scc(C(=O)Nc3cccc(-n4ccnn4)n3)c2n1 [Compound 6, 2-((3R,4R)-3-Amino-tetrahydro-pyran-4-ylamino)-thieno[3,2-d]pyrimidine-7-carboxylic acid (6-[1,2,3]triazol-1-yl-pyridin-2-yl)-amide] | 4.29 |  |
| N[C@H]1CCCC[C@H]1Nc1ncc2scc(C(=O)Nc3ccc4cnccc4n3)c2n1 [Compound 7, 2-((1R,2S)-2-Amino-cyclohexylamino)-thieno[3,2-d]pyrimidine-7-carboxylic acid [1,6]naphthyridin-2-ylamide] | 0.55 |  |
| N[C@H]1CCCC[C@H]1Nc1ncc2scc(C(=O)Nc3nc4ccccc4s3)c2n1 [Compound 8, 2-((1R,2S)-2-Amino-cyclohexylamino)-thieno[3,2-d]pyrimidine-7-carboxylic acid benzothiazol-2-ylamide] | 50 |  |
| N[C@H]1CCCC[C@H]1Nc1ncc2scc(C(=O)Nc3nc4ccccc4[nH]3)c2n1 [Compound 9, 2-((1R,2S)-2-Amino-cyclohexylamino)-thieno[3,2-d]pyrimidine-7-carboxylic acid (1H-benzoimidazol-2-yl)-amide] | 50 |  |
| N[C@H]1CCCC[C@H]1Nc1ncc2scc(C(=O)Nc3ccc4ncccc4n3)c2n1 [Compound 10, 2-((1R,2S)-2-Amino-cyclohexylamino)-thieno[3,2-d]pyrimidine-7-carboxylic acid [1,5]naphthyridin-2-ylamide] | 3.74 |  |
| Cn1cnc2c(NC(=O)c3csc4cnc(N[C@@H]5CCOC[C@@H]5N)nc34)cccc21 [Compound 11, 2-((3R,4R)-3-Amino-tetrahydro-pyran-4-ylamino)-thieno[3,2-d]pyrimidine-7-carboxylic acid (1-methyl-1H-benzoimidazol-4-yl)-amide hydrochloride] | 1.44 |  |
| Cn1cnc2c(NC(=O)c3csc4cnc(NCCN)nc34)cccc21 [Compound 12, 2-(2-Amino-ethylamino)-thieno[3,2-d]pyrimidine-7-carboxylic acid (1-methyl-1H-benzoimidazol-4-yl)-amide trifluoroacetate] | 3.06 |  |
| Cn1nc(NC(=O)c2csc3cnc(N[C@@H]4CCCC[C@@H]4N)nc23)c2ccc(F)cc21 [Compound 15, 2-((1R,2S)-2-Amino-cyclohexylamino)-thieno[3,2-d]pyrimidine-7-carboxylic acid (6-fluoro-1-methyl-1H-indazol-3-yl)-amide trifluoroacetate] | 50 |  |
| N[C@H]1COCC[C@H]1Nc1ncc2scc(C(=O)Nc3ccc4ccccc4c3)c2n1 [Compound 16, 2-((3R,4R)-3-Amino-tetrahydro-pyran-4-ylamino)-thieno[3,2-d]pyrimidine-7-carboxylic acid naphthalen-2-ylamide] | 3.73 |  |
| Cc1ccc(NC(=O)c2csc3cnc(N[C@@H]4CCOC[C@@H]4N)nc23)cc1 [Compound 18, 2-((3R,4R)-3-Amino-tetrahydro-pyran-4-ylamino)-thieno[3,2-d]pyrimidine-7-carboxylic acid p-tolylamide] | 12.2 |  |
| Cn1ccc(NC(=O)c2csc3cnc(N[C@@H]4CCOC[C@@H]4N)nc23)n1 [Compound 19, 2-((3R,4R)-3-Amino-tetrahydro-pyran-4-ylamino)-thieno[3,2-d]pyrimidine-7-carboxylic acid (1-methyl-1H-pyrazol-3-yl)-amide] | 10.7 |  |
| Cn1cc(NC(=O)c2csc3cnc(N[C@@H]4CCOC[C@@H]4N)nc23)cn1 [Compound 21, 2-((3R,4R)-3-Amino-tetrahydro-pyran-4-ylamino)-thieno[3,2-d]pyrimidine-7-carboxylic acid (1-methyl-1H-pyrazol-4-yl)-amide] | 5.8 |  |
| N[C@H]1COCC[C@H]1Nc1ncc2scc(C(=O)Nc3cnn4cccnc34)c2n1 [Compound 22, 2-((3R,4R)-3-Amino-tetrahydro-pyran-4-ylamino)-thieno[3,2-d]pyrimidine-7-carboxylic acid pyrazolo[1,5-a]pyrimidin-3-ylamide] | 0.92 |  |
| N[C@H]1COCC[C@H]1Nc1ncc2scc(C(=O)Nc3cnc4cccnn34)c2n1 [Compound 23, 2-((3R,4R)-3-Amino-tetrahydro-pyran-4-ylamino)-thieno[3,2-d]pyrimidine-7-carboxylic acid imidazo[1,2-b]pyridazin-3-ylamide] | 1.36 |  |
| Cc1cc(C)nc(NC(=O)c2csc3cnc(N[C@@H]4CCOC[C@@H]4N)nc23)c1 [Compound 24, 2-((3R,4R)-3-Amino-tetrahydro-pyran-4-ylamino)-thieno[3,2-d]pyrimidine-7-carboxylic acid (4,6-dimethyl-pyridin-2-yl)-amide] | 1.53 |  |
| Cc1ccc(NC(=O)c2csc3cnc(N[C@@H]4CCOC[C@@H]4N)nc23)nc1C [Compound 25, 2-((3R,4R)-3-Amino-tetrahydro-pyran-4-ylamino)-thieno[3,2-d]pyrimidine-7-carboxylic acid (5,6-dimethyl-pyridin-2-yl)-amide] | 1.67 |  |
